Laboratory results: US11274132B2, “Combined preparations of PKM2 modulators and HMGB1” (Ruprecht-Karls-Universität Heidelberg, priority 2015, dated 2022)

Columns and labels:
[1] = test system: mitochondrial oxygen consumption; experiment: Mitochondrial (cyanide sensitive) respiration, Oroboros oxygraph; format: cell-based, human
Description: (§1) Lactate derived from the metabolism of ^13C6-D-glucose or ^13C5-glutamine was determined by comparing the CH3 group intensities of labeled and non-labeled lactate in NMR. Mitochondrial respiration was measured using an Oroboros 1 oxygraph system. Glycolysis was measured by monitoring the conversion of 5-^3H-Glucose to ^3H2O. Incorporation of ^14C into RNA ribose from U-^14C-labelled glucose was taken as glucose utilization in the pentose phosphate shunt. Enzymatic activities were determined in subcellular fractions as previously described^24.

PKM2 [2] = biological target: T1, PKM2 (Homo sapiens, UniProt P14618); experiment: Immunoprecipitation with 125I-labeled HMGB1 (PKM2 pull-down); format: binding; parameters: endogenous in cells; conditions: 125I-labeled HMGB1
T1 sequence (P14618 whole entry): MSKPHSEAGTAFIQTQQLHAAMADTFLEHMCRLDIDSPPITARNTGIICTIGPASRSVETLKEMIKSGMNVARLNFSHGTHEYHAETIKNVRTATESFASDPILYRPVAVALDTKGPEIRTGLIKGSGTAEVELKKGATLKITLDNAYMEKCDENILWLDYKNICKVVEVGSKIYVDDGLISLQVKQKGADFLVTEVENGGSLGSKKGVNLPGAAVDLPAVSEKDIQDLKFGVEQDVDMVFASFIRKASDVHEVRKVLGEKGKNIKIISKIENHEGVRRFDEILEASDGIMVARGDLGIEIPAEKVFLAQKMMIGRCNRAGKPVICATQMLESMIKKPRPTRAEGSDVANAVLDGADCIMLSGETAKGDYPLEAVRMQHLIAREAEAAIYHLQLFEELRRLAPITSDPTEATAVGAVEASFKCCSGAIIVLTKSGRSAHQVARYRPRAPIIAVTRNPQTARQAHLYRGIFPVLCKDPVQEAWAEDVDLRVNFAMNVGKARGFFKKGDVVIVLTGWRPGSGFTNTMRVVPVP
Description: FIG. 6: Co-administration of HMGB1 and an activator (A left and right) or an inhibitor (B) of PMK2 has a synergistic cytotoxic effect, as determined in the crystal violet cytotoxicity assay (assays were performed in duplicate, * indicates p<0.05). (C) Immunoprecipitation with I125-labeled HMGB1 (PKM2 pull-down). HMGB1, like phosphotyrosine-peptides, binds close to the allosteric center of PKM2, leading to a competition in binding.

PKM2 [3] = biological target: T1, PKM2; experiment: Ultrafiltration of the PK M2-HMGB1 complex; format: binding; conditions: 2 μM human PK M2 and 2 μM human HMGB1
Description: Ultrafiltration of the PK M2-HMGB1 complex: equimolar amounts of HMGB1 and PKM2 were mixed in a final volume of 300 μl and filtrated (14000 g, 4° C.) to a final volume of 15 μl in an Amicon Ultra 0.5 ml 30k device (Merck-Millipore, Darmstadt, Germany). The retentate was adjusted to the original volume after centrifugation. Then filtrate and retentate were analyzed by Western Blot. For controls HMGB1 and PKM2 were also analyzed alone. Pure HMGB1 (2 μM) suited as a negative control.

pentose phosphate shunt = experiment: Incorporation of 14C into RNA ribose from U-14C-labelled glucose; format: cell-based, human; conditions: HMGB1 80 nM, 24 h
Description: as §1

Dimeric PK M2 = biological target: T2, Dimeric PK M2 (Homo sapiens, UniProt P14618); experiment: Pyruvate kinase enzymatic assay (high PEP); format: cell-based; conditions: colorectal cancer cells
T2 construct: Activities of glycolytic enzymes measured in cytosolic fractions after treatment with HMGB1; endogenous in cells; host or cells: SW480, HCT116, HT29 cytosolic fractions; homogenates of human colon cancer tissue slices
T2 sequence (P14618 2-531 limits assumed): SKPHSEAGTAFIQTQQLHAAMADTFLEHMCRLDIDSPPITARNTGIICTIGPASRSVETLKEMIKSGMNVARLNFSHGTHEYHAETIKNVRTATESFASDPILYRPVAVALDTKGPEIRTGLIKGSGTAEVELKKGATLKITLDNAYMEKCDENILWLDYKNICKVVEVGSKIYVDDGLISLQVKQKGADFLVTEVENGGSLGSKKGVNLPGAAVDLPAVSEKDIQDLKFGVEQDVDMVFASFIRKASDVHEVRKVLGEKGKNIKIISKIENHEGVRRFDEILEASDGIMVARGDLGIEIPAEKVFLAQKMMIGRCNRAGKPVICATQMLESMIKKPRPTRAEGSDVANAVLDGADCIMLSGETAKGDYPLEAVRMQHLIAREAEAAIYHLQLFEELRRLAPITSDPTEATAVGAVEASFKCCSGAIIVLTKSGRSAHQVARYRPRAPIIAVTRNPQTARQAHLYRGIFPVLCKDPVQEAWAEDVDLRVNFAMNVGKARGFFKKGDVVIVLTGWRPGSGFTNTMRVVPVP
Description: Enzymatic activities of respiratory chain complexes, glycolytic proteins and malic enzyme were determined in subcellular fractions as previously described (Kaminski, M. M. et al. T cell activation is driven by an ADP-dependent glucokinase linking enhanced glycolysis with mitochondrial reactive oxygen species generation. Cell reports 2, 1300-1315 (2012).Bruncko, M. et al. Naphthamidine urokinase plasminogen activator inhibitors with improved pharmacokinetic properties. Bioorganic & medicinal chemistry letters 15, 93-98, (2005)) using a computer-tuneable spectrophotometer (Spectramax Plus Microplate Reader, Molecular Devices; Sunny Vale, Calif., USA) operating in the dual wavelength mode; samples were analyzed in temperature-controlled 96-well plates in a final volume of 300 μl. Activity of ME1 was recorded in presence of increasing amounts of malic acid (0.02, 0.05, 0.1, 0.2, 0.5, 1, 2.5 mM). Vmax and Km were calculated using a Hanes-Woolf plot. In the presence of high substrate levels the Km for malic acid was similar in all three tested cell lines (SW480: 0.32 mM, HCT116: 0.30 mM, HT29: 0.31 mM). Vmax (mU/mg protein) values were 3.38 (SW480, 0.5-5.0 mM malic acid), 5.77 (HCT116, 0.5-5.0 mM malic acid) and 3.68 (HT29, 0.5-5.0 mM malic acid) and 1.68 (SW480, 0.02-0.2 mM malic acid), 3.24 (HCT116, 0.02-0.2 mM malic acid) and 1.89 (HT29, 0.02-0.2 mM malic acid). […]

complex II and III = experiment: Respiratory chain complex activities in mitochondrial fractions; format: cell-based, human; conditions: HMGB1 80 nM, 24 h
Description: (§2) Enzymatic activities of respiratory chain complexes, glycolytic proteins and malic enzyme were determined in subcellular fractions as previously described (Kaminski, M. M. et al. T cell activation is driven by an ADP-dependent glucokinase linking enhanced glycolysis with mitochondrial reactive oxygen species generation. Cell reports 2, 1300-1315 (2012).Bruncko, M. et al. Naphthamidine urokinase plasminogen activator inhibitors with improved pharmacokinetic properties. Bioorganic & medicinal chemistry letters 15, 93-98, (2005)) using a computer-tuneable spectrophotometer (Spectramax Plus Microplate Reader, Molecular Devices; Sunny Vale, Calif., USA) operating in the dual wavelength mode; samples were analyzed in temperature-controlled 96-well plates in a final volume of 300 μl. Activity of ME1 was recorded in presence of increasing amounts of malic acid (0.02, 0.05, 0.1, 0.2, 0.5, 1, 2.5 mM). Vmax and Km were calculated using a Hanes-Woolf plot. In the presence of high substrate levels the Km for malic acid was similar in all three tested cell lines (SW480: 0.32 mM, HCT116: 0.30 mM, HT29: 0.31 mM). Vmax (mU/mg protein) values were 3.38 (SW480, 0.5-5.0 mM malic acid), 5.77 (HCT116, 0.5-5.0 mM malic acid) and 3.68 (HT29, 0.5-5.0 mM malic acid) and 1.68 (SW480, 0.02-0.2 mM malic acid), 3.24 (HCT116, 0.02-0.2 mM malic acid) and 1.89 (HT29, 0.02-0.2 mM malic acid). Two isoforms of ME1, mitochondrial (NAD(P)+dependent) ME3 and mitochondrial (NAD+dependent) ME2, had very low or no detectable activities (data not shown).
(§3) Cells were lysed in lysis buffer P (20 mM Tris-HCl (pH 7.4), 137 mM NaCl, 10% (v/v) glycerine, 1% Triton X-100, 2 mM EDTA, 100 mM phenylmethylsulfonyl fluoride and protease inhibitors (Complete mini from Roche). Lysates were centrifuged at 14,000×g (10 min) at 4° C. Total protein was measured by the Bradford (Bio-Rad) method. Soluble protein was resolved by SDS-PAGE, blotted onto nitrocellulose and incubated with one of the following antibodies: mouse monoclonal anti-β-actin (1:3,000, Sigma-Aldrich), rabbit anti PK M2 (1:1,000, Cell Signaling), rabbit anti-malic enzyme 1 (1:1,000, abcam). Appropriate secondary antibodies (1:3,000, horse-radish peroxidase-conjugated) were from Bio-Rad. Visualization was done by enhanced chemiluminescence technique (GE-Healthcare). Mitochondrial fractions were extracted using the ApoAlert Cell Fractionation Kit (Clontech) as described earlier (Gdynia, G. et al. BLOC1S2 interacts with the HIPPI protein and sensitizes NCH89 glioblastoma cells to apoptosis. Apoptosis: an international journal on programmed cell death 13, 437-447, (2008)).

ATP synthase = experiment: as above; format: cell-based, human; conditions: colorectal cancer cell lines; HMGB1 80 nM, 24 h
Description: as §2, §3

[4] = test system: cytochrome c oxidase (COX); experiment: as above; format: cell-based, human
Description: as §2, §3

complex I to III = experiment: as above; format: cell-based, human; conditions: colorectal cancer cell lines; HMGB1 80 nM, 24 h
Description: as §2, §3

“HMGB1: recombinant human HMGB1 protein (Sigma-Aldrich); High Mobility Group Box 1 polypeptide, human, SEQ ID NO: 4” was tested, and the “inhibition of mitochondrial oxygen consumption” value ([1]; HCT116 cells, HMGB1 80 nM, 24 h) was “pronounced”, the mitochondrial respiration ([1]; HT29 cells, HMGB1 80 nM, 24 h) was “only slightly reduced” and the “inhibition of mitochondrial oxygen consumption” value ([1]; SW480 cells, HMGB1 80 nM, 24 h) was “pronounced”. The mitochondrial oxygen consumption ([1]; colorectal cancer tissue slices, HMGB1 160 nM, 72 h) was “strongly decreased”, the “binding to PKM2 in vivo (immunoprecipitating PKM2)” value (PKM2 [2]) was “specific binding” and the “physical interaction with PK M2 in vitro” value (PKM2 [3]) was “physically interacted”. The “flux of glycolytic intermediates into the pentose phosphate shunt” value (pentose phosphate shunt) was “increased flux”, the “Dimeric PK M2 activity” value (Dimeric PK M2) was “unchanged” and the “coupled complex II and III activity” value (complex II and III; HCT116) was “maintained or even upregulated”. For the same substance, the “coupled complex II and III activity” value (complex II and III; HT29) was “maintained or even upregulated”, the “coupled complex II and III activity” value (complex II and III; SW480) was “decreased” and the ATP synthase activity (ATP synthase) was “not diminished”. The COX activity ([4]; colorectal cancer cell lines, HMGB1 80 nM, 24 h) was “significantly lower activity levels”, the COX activity ([4]; primary tumor tissue slices, HMGB1 160 nM, 72 h) was “potent inhibition” and the “electron flow from complex I to III” value (complex I to III) was “unchanged”.
